The values that follow come from patent US20080176857A1, “4-Piperazinnylthieno[2,3-d]Pyrimidine Compounds as Platelet Aggregation Inhibitors” (priority 2005, published 2008).

SMILES strings stand for the structures. Several values for one entry are separate records, joined by “and”; a condition that tells them apart may be missing. Identical values can stand only once.

This test deals with P2Y12 receptor (Homo sapiens, UniProt Q9H244). Nature of the test: [33P]-2MeS-ADP binding to recombinant human P2Y12 membranes (Assay 3). Set-up: expressed in transfected cells; host or cells: HEK cells. The note with it: for IC50 / Ki: HEK cell membranes expressing human P2Y12, competition with 33P 2MeS-ADP; for % Inhibition / inhibition at 10 µM: 10 μM. As for the experimental part:
3. Human P2Y12 Recombinant Cell Membrane Binding Assay with ^33P 2MeS-ADP.
The ability of a test compound to bind to the P2Y12 receptor was evaluated in a recombinant cell membrane binding assay. In this competitive binding assay, the test compound competed against a radiolabelled agonist for binding to the P2Y12 receptor, expressed on the cell membrane. Inhibition of binding of the labeled material was measured and correlated to the amount and potency of the test compound. Data from this assay are presented in Table F. This binding assay is a modification of the procedure in Takasaki, J. et. al, Mol. Pharmacol., 2001, Vol. 60, pg. 432.
HEK cells were transfected with the pDONR201P2Y12 vector and cultured in MEM with GlutaMAX I, Earle's salts, 25 mM HEPES (Gibco # 42360-032) containing 10% dialyzed FBS (Gibco # 26400-044), 100 μM nonessential amino acids (Gibco # 11140-050), 1 mM sodium pyruvate (Gibco # 11360-070), 0.05% geneticin (Gibco #10131-027), 3 μg/mL blasticidin (Fluka brand from Sigma # 15205), and 0.5 μg/mL puromycin (Sigma # P-8833).
Confluent cells were washed once with cold DPBS (Gibco # 14190-136). Fresh DPBS was added and the cells were scraped and centrifuged at 500×g for 5 minutes at 4° C. The cell pellets were resuspended in TEE buffer (25 mM Tris, 5 mM EDTA, 5 mM EGTA) containing 1 protease inhibitor cocktail tablet (Roche # 1 873 580) per 50 mL (called TEE+Complete) and can be flash frozen at this point.
In one embodiment, frozen cell pellets were used to prepare the membranes. In that embodiment, the frozen cell pellets were thawed on ice. In another embodiment, cell pellets may be used without flash freezing before moving on to the next step.
Cell pellets were resuspended in TEE buffer+Complete and homogenized in a glass dounce for 12 strokes. The cell suspension was centrifuged at 500×g for 5 minutes at 4° C. The supernatant was saved and centrifuged at 20,000×g for 20 minutes at 4° C. This supernatant was discarded and the cell pellet resuspended in TEE buffer+Complete and homogenized in a glass dounce for 12 strokes. This suspension was centrifuged at 20,000×g for 20 minutes at 4° C. and the supernatant discarded. The pellet was resuspended in assay buffer (50 mM Tris, 100 mM NaCl, 1 mM EDTA) containing one protease inhibitor cocktail tablet per 50 mL, and can be flash frozen as 1 mL aliquots at this point.
Dry compounds were diluted as 10 mM DMSO stocks and tested in a seven-point, three-fold dilution series run in triplicate beginning at 10 μM, final concentration. A 1 mM DMSO intermediate stock was made in a dilution plate and from this the seven dilutions were made to 5× the final concentration in assay buffer containing 0.02% BSA.
The plates were incubated at room temperature for 1 hour. The reaction was stopped using a cell harvester to transfer the reaction mixture onto GF/B UniFilter plates (Perkin Elmer # 6005177), and washed three times with wash buffer (50 mM Tris), filtering between each wash. The filter plates were dried for approximately 20 minutes in an oven at 50° C. Back seals were adhered to the filter plates and 25 uL of Microscint 20 scintillation fluid (Perkin Elmer # 6013621) were added. The filter plates were sealed, shaken for 30 minutes, and counted on a Top Count. Data were analyzed using a four-parameter curve fit with a fixed minimum and maximum experimentally defined as the average positive and negative controls on each plate, and with a hill slope equal to one.
The table below presents the IC50, Ki, and percent inhibition values for compounds tested in either washed human platelets membrane binding assay (assay #1 above) or recombinant cell membrane binding assay (Assay #3, above). Example number refers to the compound prepared as described in the example noted in the section Working Examples, above. The highest concentration of candidate compound tested is listed for each experimental run presented. […]

Where [1] appears, read: at highest concentration tested.

Sequence of P2Y12 receptor (Q9H244 whole entry): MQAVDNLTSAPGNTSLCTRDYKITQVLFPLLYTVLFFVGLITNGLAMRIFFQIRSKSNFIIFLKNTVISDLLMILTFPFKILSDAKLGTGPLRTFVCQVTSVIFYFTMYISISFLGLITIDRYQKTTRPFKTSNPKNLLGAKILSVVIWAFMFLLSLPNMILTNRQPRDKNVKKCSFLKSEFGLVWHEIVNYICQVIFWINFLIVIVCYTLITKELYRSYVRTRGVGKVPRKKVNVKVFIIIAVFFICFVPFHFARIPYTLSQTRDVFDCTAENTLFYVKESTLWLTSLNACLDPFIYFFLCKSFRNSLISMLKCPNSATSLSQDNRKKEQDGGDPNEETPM

As usually defined, the IC50 is the point on the concentration scale where inhibition reaches its midpoint. The term Ki denotes a dissociation constant, usually derived from enzyme kinetics or from competition with a known ligand. As usually defined, the % Inhibition is the change of the read-out against control, counted positive when it falls. Usually inhibition stands for the change of the read-out against control, counted positive when it falls. Take `CCc1cc2c(N3CCN(C(=O)Cc4ccccc4)CC3)nc(SCC(N)=O)nc2s1` [Example 24, 2-({6-Ethyl-4-[4-(phenylacetyl)piperazin-1-yl]thieno[2,3-d]pyrimidin-2-yl}thio)acetamide]: the concentration for half-maximal inhibition (IC50) was 190 nM and 240 nM; the inhibition constant (Ki) is 110 nM and 130 nM. Under setting [1], the “% Inhibition” value came to 92.16% and the inhibition at 10 µM was found to be 83.1%.

With `CCc1cc2c(N3CCN(C(=O)c4ccc(OC)cc4)CC3)nc(SCC(=O)OC)nc2s1` [Example 59, Methyl ({6-ethyl-4-[4-(4-methoxybenzoyl)piperazin-1-yl]thieno[2,3-d]pyrimidin-2-yl}thio)acetate], the IC50 was determined as 2970 nM and the inhibitory constant (Ki) worked out at 1480 nM. Also, the inhibition at 10 µM under setting [1] worked out at 67.1%.

As for `CCc1cc2c(N3CCN(C(=O)C4COc5ccccc5O4)CC3)nc(SCC(=O)OC)nc2s1` (stereo not drawn) [Example 38, Methyl ({4-[4-(2,3-dihydro-1,4-benzodioxin-2-ylcarbonyl)piperazin-1-yl]-6-ethylthieno[2,3-d]pyrimidin-2-yl}thio)acetate], the IC50 was 600 nM and the inhibition constant Ki came to 400 nM. Besides, the inhibition at 10 µM under setting [1] is 77.2%.

Take `CCc1cc2c(N3CCN(C(=O)c4ccc5ccoc5c4)CC3)nc(SCC(=O)OC)nc2s1` [Example 65, Methyl ({4-[4-(1-benzofuran-6-ylcarbonyl)piperazin-1-yl]-6-ethylthieno[2,3-d]pyrimidin-2-yl}thio)acetate]: the IC50 was 620 nM and the Ki turned out to be 370 nM. For the same compound, under setting [1], the inhibition at 10 µM was 81%.

For `CCc1cc2c(N3CCN(C(=O)c4ccc(-c5ccccc5)cc4)CC3)nc(SCC(N)=O)nc2s1` [Example 31, 2-({4-[4-(1,1′-Biphenyl-4-ylcarbonyl)piperazin-1-yl]-6-ethylthieno[2,3-d]pyrimidin-2-yl}thio)acetamide], the IC50 turned out to be 31 nM and the inhibitory constant (Ki) came to 18 nM. Besides, the inhibition at 10 µM under setting [1] turned out to be 99.7%.

With `CCc1cc2c(N3CCN(C(=O)c4cc(F)ccc4F)CC3)nc(SCC(=O)OC)nc2s1` [Example 53, Methyl ({4-[4-(2,5-difluorobenzoyl)piperazin-1-yl]-6-ethylthieno[2,3-d]pyrimidin-2-yl}thio)acetate], the half-maximal inhibitory concentration (IC50) was determined as 2330 nM and the Ki is 1560 nM. Besides, the inhibition at 10 µM under setting [1] worked out at 68.8%.

Consider `CCc1cc2c(N3CCN(C(=O)c4cccc5ccccc45)CC3)nc(SCC(=O)OC)nc2s1` [Example 50, Methyl ({6-ethyl-4-[4-(1-naphthoyl)piperazin-1-yl]thieno[2,3-d]pyrimidin-2-yl}thio)acetate], for which the 50% inhibitory concentration (IC50) is greater than 10000 nM and the Ki was greater than 6700 nM. Moreover, the inhibition at 10 µM under setting [1] is 40.3%.

As for `CCc1cc2c(N3CCN(C(=O)c4cccc(-c5ccccc5)c4)CC3)nc(SCC(=O)OC)nc2s1` [Example 78, Methyl ({4-[4-(1,1′-biphenyl-3-ylcarbonyl)piperazin-1-yl]-6-ethylthieno[2,3-d]pyrimidin-2-yl}thio)acetate], the IC50 is 35 nM and 20 nM and 69 nM; the Ki is 20 nM and 10 nM and 40 nM. The inhibition at 1 µM (at highest concentration tested, 1 μM) came out at 94%. Moreover, under setting [1], the “% Inhibition” value is 87.73% and the inhibition at 10 µM was 92.6%.

For `CCc1cc2c(N3CCN(C(=O)Cc4ccccc4)CC3)nc(S(=O)(=O)CC(=O)OC)nc2s1` [Example 8, Methyl ({6-ethyl-4-[4-(phenylacetyl)piperazin-1-yl]thieno[2,3-d]pyrimidin-2-yl}sulfonyl)acetate], the half-maximal inhibitory concentration (IC50) was 1200 nM; the inhibition constant (Ki) is 720 nM and 680 nM. Moreover, under setting [1], the “% Inhibition” value is 81.44% and the inhibition at 10 µM worked out at 81.3%.

On to `CCc1cc2c(N3CCN(C(=O)CCCC(=O)OC)CC3)nc(SCC(=O)OC)nc2s1` [Example 41, Methyl 5-(4-{6-ethyl-2-[(2-methoxy-2-oxoethyl)thio]thieno[2,3-d]pyrimidin-4-yl}piperazin-1-yl)-5-oxopentanoate], for which the IC50 amounted to 2570 nM and the Ki was determined as 1720 nM. Under setting [1], the inhibition at 10 µM is 71.6%.

With `CCc1cc2c(N3CCN(C(=O)c4cc(F)cc(F)c4)CC3)nc(SCC(=O)OC)nc2s1` [Example 51, Methyl ({4-[4-(3,5-difluorobenzoyl)piperazin-1-yl]-6-ethylthieno[2,3-d]pyrimidin-2-yl}thio)acetate], the IC50 was 1580 nM and the Ki is 1050 nM. Also, under setting [1], the inhibition at 10 µM is 74.2%.

On to `CCc1cc2c(N3CCN(C(=O)c4ccc(OC(F)(F)F)cc4)CC3)nc(SCC(=O)OC)nc2s1` [Example 49, Methyl [(6-ethyl-4-{4-[4-(trifluoromethoxy)benzoyl]piperazin-1-yl}thieno[2,3-d]pyrimidin-2-yl)thio]acetate], for which the IC50 is 5520 nM and the inhibitory constant (Ki) is 3680 nM. In addition, the inhibition at 10 µM under setting [1] was 56.8%.

For the compound `CCCOc1ccc(C(=O)N2CCN(c3nc(SCC(=O)OC)nc4sc(CC)cc34)CC2)cc1` [Example 71, Methyl ({6-ethyl-4-[4-(4-propoxybenzoyl)piperazin-1-yl]thieno[2,3-d]pyrimidin-2-yl}thio)acetate], the IC50 came out at 289 nM and the Ki came to 179 nM. Also, the inhibition at 10 µM under setting [1] came to 89.3%.

As for `CCc1cc2c(N3CCN(C(=O)Cc4ccccc4)CC3)nc(SC[C@H](N)C(=O)OC)nc2s1` [Example 16, Methyl S-{6-ethyl-4-[4-(phenylacetyl)piperazin-1-yl]thieno[2,3-d]pyrimidin-2-yl}-L-cysteinate], the half-inhibitory concentration (IC50) is 270 nM and 360 nM; the Ki is 150 nM and 210 nM. Further, under setting [1], the “% Inhibition” value is 87.82% and the inhibition at 10 µM is 88.7%.

Consider `CCc1cc2c(N3CCN(C(=O)c4ccc(-c5ccccc5)cc4)CC3)nc(SCC(=O)OC)nc2s1` [Example 22, Methyl ({4-[4-(1,1′-biphenyl-4-ylcarbonyl)piperazin-1-yl]-6-ethylthieno[2,3-d]pyrimidin-2-yl}thio)acetate], for which the concentration for half-maximal inhibition (IC50) is 43 nM and 51 nM; the Ki is 25 nM and 28 nM. Moreover, under setting [1], the “% Inhibition” value is 90.70% and the inhibition at 10 µM is 92.7%.

In the case of `CCc1cc2c(N3CCN(C(=O)c4cccc(C(F)(F)F)c4)CC3)nc(SCC(=O)OC)nc2s1` [Example 60, Methyl [(6-ethyl-4-{4-[3-(trifluoromethyl)benzoyl]piperazin-1-yl}thieno[2,3-d]pyrimidin-2-yl)thio]acetate], the half-inhibitory concentration (IC50) was found to be 4870 nM and the Ki was determined as 3160 nM. Further, the inhibition at 10 µM under setting [1] was 60.8%.

As for `CCc1cc2c(N3CCN(C(=O)Cc4ccccc4)CC3)nc(SCC(=O)NC)nc2s1` [Example 13, 2-({6-Ethyl-4-[4-(phenylacetyl)piperazin-1-yl]thieno[2,3-d]pyrimidin-2-yl}thio)-N-methylacetamide], the IC50 is 280 nM and 530 nM; the Ki was 160 nM and 310 nM. Also, under setting [1], the “% Inhibition” value was found to be 88.77% and the inhibition at 10 µM was determined as 88.2%.

Take `CCc1cc2c(N3CCN(C(=O)Cc4ccccc4)CC3)nc(SCC(=O)Nc3ccccc3)nc2s1` [Example 23, 2-({6-Ethyl-4-[4-(phenylacetyl)piperazin-1-yl]thieno[2,3-d]pyrimidin-2-yl}thio)-N-phenylacetamide]: under setting [1], the “% Inhibition” value was found to be 75.04% and the inhibition at 10 µM turned out to be 64.6%.

With `CCc1cc2c(N3CCN(C(=O)Cc4ccccc4)CC3)nc(SCCCCO)nc2s1` [Example 84, 4-({6-ethyl-4-[4-(phenylacetyl)piperazin-1-yl]thieno[2,3-d]pyrimidin-2-yl}thio)butan-1-ol], the IC50 is 580 nM and 1440 nM and 220 nM and 270 nM and 520 nM; the inhibitory constant (Ki) is 315 nM and 825 nM and 130 nM and 150 nM and 300 nM. For the same compound, under setting [1], the “% Inhibition” value is 90.62% and 71.83% and 92.13% and 94.46% and 90.58%.
